From article PMC9775322, “An Integrated Analysis of Mechanistic Insights into Biomolecular Interactions and Molecular Dynamics of Bio-Inspired Cu(II) and Zn(II) Complexes towards DNA/BSA/SARS-CoV-2 3CL^pro by Molecular Docking-Based Virtual Screening and FRET Detection” (Biomolecules, 2022)

Tests used:
[1] = system: CT-DNA; test: DNA cleavage by agarose gel electrophoresis in presence of H2O2; format: biochemical, calf; conditions: in the presence of H2O2, agarose gel
From the text: The DNA nuclease characteristics were scrutinized of all substances along with DNA containing H2O2 and Tris-HCl buffer solution with a pH of 7.4 [19]. The gel layer was discarded from the tank solution after the experiment was finished and put in front of a UV transilluminator, and each band lane was also scrutinized with the control (DNA + H2O2).
2.1. Resources and Techniques
We purchased the essential chemical substances and other reagents from Sigma Aldrich repository. Numerous analytical and spectral measurements were utilized to describe all the test compounds, including Bruker 300 MHz 1H NMR spectrometer, or Avance III HD Nanobay 400 MHz, Shimadzu FT-IR spectrometer, Shimadzu UV-Vis 1800, Varian E112 EPR spectrometer, Bruker Daltonics ESI-MS 3000 or Bruker Compact qTOFMS coupled to an LC system and (Varian Inc, USA, 410 proStar binary LC with 500 MS, IT, and PDA detectors, or Thermo Ultimate 3000 with PDA), Bruker AXS KAPPA APEX-2 or D8 ADVANCE diffractometers (SCXRD) and other analytical techniques. The further details were encapsulated in our previous reports.
2.2. DNA/BSA interaction studies
2.2.1. […]
After the completion of the experiment, the gel layer was taken out of the tank solution and exposed to a UV transilluminator. All band lanes were evaluated and compared to the control (DNA+H2O2) using bromophenol blue, […] is useful for visually analyzing the migrated band lanes for the degree of DNA cleavage. […]
By increasing the concentration of DNA (0 –50 μM), electronic absorption titrations were performed at the fixed concentration (50 μM) of all test compounds in aqueous media at room temperature. […] Using the molar extinction coefficient (6600 M −1 cm−1) at 260 nm, it was also possible to measure the DNA concentration per nucleotide and polynucleotide, denoting that the DNA was sufficiently free of protein by the ratio of absorbance at 260 and 280 nm of roughly 1.8 –1.9 [21, 22]. When raising the concentration of DNA in compound solution, up to the point of completely binding, the decrease in absorbance intensity was carefully observed.

[2] = system: CT-DNA; test: DNA binding by UV–visible absorption titration; parameters: species or system calf; conditions: for ΔGb° values, range over all methods (WS, BH, SK): DNA binding; for ΔGb° values, range over all methods (WS, BH, SK) / Kb, BH–I (Benesi–Hildebrand method I) / Kb, BH–II (Benesi–Hildebrand method II) / Kb, SK–I (Sakthi–Krause method I) / Kb, SK–II (Sakthi–Krause method II) / Kb, WS–I (Wolfe-Shimmer method I) / Kb, WS–II (Wolfe-Shimmer method II): UV–Vis titration; for % H (hypochromism) / Δλ nm (red shift on binding to CT-DNA): compound 50 μM, DNA 0–50 μM, Tris-HCl buffer pH 7.4, 25 °C; for Kb, BH–I (Benesi–Hildebrand method I) / Kb, BH–II (Benesi–Hildebrand method II) / Kb, SK–I (Sakthi–Krause method I) / Kb, SK–II (Sakthi–Krause method II) / Kb, WS–I (Wolfe-Shimmer method I) / Kb, WS–II (Wolfe-Shimmer method II): intrinsic DNA binding constant; for ΔGb°, BH–I / ΔGb°, BH–II / ΔGb°, SK–I / ΔGb°, SK–II / ΔGb°, WS–I / ΔGb°, WS–II: −RT ln Kb, T = 298 K
Description: The DNA-binding experiment was performed by a UV–visible spectrophotometer by raising the DNA concentration from zero to 50 μM to the given concentration of all samples (50 μM) in Tris-HCl buffer with a pH of 7.4 at 25 °C [21, 22].
2.2.2. Evaluation of DNA-binding characteristics
By increasing the concentration of DNA (0 –50 μM), electronic absorption titrations were performed at the fixed concentration (50 μM) of all test compounds in aqueous media at room temperature. The Tris-HCl buffer (5mM Tris-HCl /50 mM NaCl, pH = 7.2) solution was guaranteed to be pure and contain sufficient amounts of DNA. Using the molar extinction coefficient (6600 M −1 cm−1) at 260 nm, it was also possible to measure the DNA concentration per nucleotide and polynucleotide, denoting that the DNA was sufficiently free of protein by the ratio of absorbance at 260 and 280 nm of roughly 1.8 –1.9 [21, 22]. When raising the concentration of DNA in compound solution, up to the point of completely binding, the decrease in absorbance intensity was carefully observed. […]
ɛa is represented as the apparent absorption coefficient value for the MLCT band at a specific concentration of deoxyribonucleic acid and evaluated from Abs/[complex]. ɛ f and ɛb are the absorption coefficients for the chemical substance alone and completely interacted with deoxyribonucleic acid, respectively. ∆Amax = (Amax–A0); ∆A=(Ax–A0), where A0, Ax and Amax are denoted as the optical density of chemical substances alone, the middle form, and the completely interacted form with deoxyribonucleic acid, respectively.

[3] = system: Salmonella enteric serovar typhi; test: Agar disc diffusion antibacterial test; format: cell-based; conditions: B; for Inhibition %: (T–C)/T × 100
[4] = system: EB–DNA; test: Ethidium bromide displacement assay by fluorescence spectral titration; format: binding, calf; conditions: Kapp=KEB[EB]/[compound], KEB = 10^7 M^−1 at 50 µM EB; compound concentration at 50% reduction of EB fluorescence
[5] = system: Aspergillus niger; test: Agar disc diffusion antifungal test; conditions: for diameter of clear zone inhibition / Inhibition %: H; for diameter of clear zone inhibition: 20 µL of 100 µM on 6 mm disc, Control (DMSO) = 6 mm; for Inhibition %: (T–C)/T × 100
[6] = system: Pseudomonas aeruginosa; test: Agar disc diffusion antibacterial test; conditions: for diameter of clear zone inhibition / Inhibition %: D, (-) Pseudomonas aeruginosa; for diameter of clear zone inhibition: 20 µL of 100 µM on 6 mm disc, Control (DMSO) = 6 mm; for Inhibition %: (T–C)/T × 100
[7] = system: Bacillus cereus; test: Agar disc diffusion antibacterial test; conditions: for diameter of clear zone inhibition / Inhibition %: G, (+) Bacillus cereus; for diameter of clear zone inhibition: 20 µL of 100 µM on 6 mm disc, Control (DMSO) = 6 mm; for Inhibition %: (T–C)/T × 100
[8] = 20 µL of 100 µM on 6 mm disc, Control (DMSO) = 6 mm

SMILES	DNA cleavage (chemical nuclease activity) [1]	% H (hypochromism) [2] [%]	Δλ nm (red shift on binding to CT-DNA) [2] [nm]	Kb, BH–I (Benesi–Hildebrand method I) [2]	Kb, BH–II (Benesi–Hildebrand method II) [2]	Kb, SK–I (Sakthi–Krause method I) [2] [M⁻¹]	Kb, SK–II (Sakthi–Krause method II) [2] [M⁻¹]	Kb, WS–I (Wolfe-Shimmer method I) [2] [M⁻¹]	Kb, WS–II (Wolfe-Shimmer method II) [2] [M⁻¹]	ΔGb°, BH–I [2]	ΔGb°, BH–II [2]	ΔGb°, SK–I [2] [kJmol^−1]	ΔGb°, SK–II [2] [kJmol^−1]	ΔGb°, WS–I [2] [kJmol^−1]	ΔGb°, WS–II [2] [kJmol^−1]	Inhibition % [3] [%]	Kapp (apparent binding constant) [4] [M⁻¹]	Inhibition % [5] [%]	Inhibition % [6] [%]	Inhibition % [7] [%]	also measured
[Cu+2].[O-]c1ccccc1N=Cc1ccc(N2CCOCC2)cc1.[O-]c1ccccc1N=Cc1ccc(N2CCOCC2)cc1.c1cnc2c(c1)ccc1cccnc12 [(1b), [Cu^II(L)2(phen)]]	complete DNA cleavage	56.88	7	25359 M⁻¹	25251 M⁻¹	20314	21747	20610	21357	−25.12 kJmol^−1	−25.11 kJmol^−1	−24.58	−24.74	−24.61	−24.70	40	1e+07	40	33	40	ΔGb° values, range over all methods (WS, BH, SK) [2]: −24.58 to −25.12 kJmol^−1; diameter of clear zone inhibition [3, 8]: 10 mm; diameter of clear zone inhibition [5]: 10 mm; diameter of clear zone inhibition [6]: 9 mm; diameter of clear zone inhibition [7]: 10 mm
[O-]c1ccccc1N=Cc1ccc(N2CCOCC2)cc1.[O-]c1ccccc1N=Cc1ccc(N2CCOCC2)cc1.[Zn+2].c1cnc2c(c1)ccc1cccnc12 [(2b), [Zn^II(L)2(phen)]]	partially cleaves DNA	55.75	5	20131 M⁻¹	20035 M⁻¹	19471	20897	19930	20811	−24.55 kJmol^−1	−24.54 kJmol^−1	−24.47	−24.65	−24.53	−24.64	40	4.804e+06	45	25	45	ΔGb° values, range over all methods (WS, BH, SK) [2]: −24.47 to −24.65 kJmol^−1; diameter of clear zone inhibition [3, 8]: 10 mm; diameter of clear zone inhibition [5]: 11 mm; diameter of clear zone inhibition [6]: 08 mm; diameter of clear zone inhibition [7]: 11 mm
Oc1ccccc1N=Cc1ccc(N2CCOCC2)cc1 [(HL), 2-(4-morpholinobenzylideneamino)phenol]	No discernible DNA cleavage	46.88	4	1.0545 (1.0545) × 10^4 M^−1	1.0545 (1.0545) × 10^4 M^−1	8775	15618	15169	15480	−22.95 (−22.95) kJmol^−1	−22.95 (−22.95) kJmol^−1	−22.50	−23.92	−23.85	−23.90	33	4.2e+06	40	25	33	zone of inhibition at 100 µM ([3]; 20 µL of 100 µM on 6 mm disc, Control (DMSO) = 6 mm, read-out: diameter of clear zone inhibition): 9 mm; zone of inhibition at 100 µM ([5]; read-out: diameter of clear zone inhibition): 10 mm; zone of inhibition at 100 µM ([6]; Pseudomonas aeruginosa, read-out: diameter of clear zone inhibition): 8 mm; zone of inhibition at 100 µM ([7]; Bacillus cereus, read-out: diameter of clear zone inhibition): 9 mm
